Structures can show the parent of a compound that is named as a salt.
Each compound was assayed on Acinetobacter baumannii ATCC17961 (assay: Antimicrobial susceptibility testing: 90% growth inhibitory concentration (IC90) determination in Iso-Sensitest broth, OD600 growth). Conditions: Acinetobacter baumannii, ATCC17961, 16 h, read-out: A. baumannii ATCC 17961 IC90 (uM), strain ATCC 17961, OD600 growth over 16 h.
Assay type: cell-based
Experimental: Antimicrobial Susceptibility Testing:
90% Growth Inhibitory Concentration (IC90) Determination
The in vitro antimicrobial activity of the compounds was determined according to the following procedure:
The assay used a 10-points Iso-Sensitest broth medium to measure quantitatively the in vitro activity of the compounds against Acinetobacter baumannii ATCC17961 or ATCC17968.
Stock compounds in DMSO were serially twofold diluted (e.g. range from 50 to 0.097 μM final concentration) in 384 wells microtiter plates and inoculated with 49 μl the bacterial suspension in Iso-Sensitest medium to have a final cell concentration of ˜5×10^(5) CFU/ml in a final volume/well of 50 ul/well. Microtiter plates were incubated at 35±2° C.
Bacterial cell growth was determined with the measurement of optical density at λ=600 nm each 20 minutes over a time course of 16 h. Growth inhibition was calculated during the logarithmic growth of the bacterial cells with determination of the concentration inhibiting 50% (IC50) and 90% (IC90) of the growth.
Table 7 provides the 90% growth inhibitory concentrations (IC90) in micromoles per liter of the compounds of present invention obtained against the strain Acinetobacter baumannii ATCC17961 and/or ATCC17968.
`CCc1cc(Nc2nccn3c(-c4cn(Cc5cccnc5)nc4C(F)(F)F)cnc23)ccc1C(=O)NCCCNCCCCNCCCN` [Example 7, N-[3-[4-(3-aminopropylamino)butylamino]propyl]-2-ethyl-4-[[3-[1-(pyridin-3-ylmethyl)-3-(trifluoromethyl)pyrazol-4-yl]imidazo[1,2-a]pyrazin-8-yl]amino]benzamide hydrochloride] showed an IC90 of 0.782 µM.

Same assay, conditions: Acinetobacter baumannii, ATCC17961, 16 h, strain ATCC 17961, OD600 growth over 16 h, read-out: A. baumannii ATCC 17961 IC90
`C#CC(C)n1cc(-c2cnc3c(Nc4ccc(C(=O)N5CCN(C(=O)[C@H](N)C(C)C)CC5)c(CC)c4)nccn23)c(C(F)F)n1` (mixture of isomers) [Example 799, (2R)-2-amino-1-(4-(4-((3-(1-(but-3-yn-2-yl)-3-(difluoromethyl)-1H-pyrazol-4-yl)imidazo [1,2-a]pyrazin-8-yl)amino)-2-ethylbenzoyl)piperazin-1-yl)-3-methylbutan-1-one (mixture of epimers)] showed an IC90 of 2.74 µM.
`O=C(c1ccc(Nc2nccn3c(-c4c[nH]nc4C(F)(F)F)cnc23)cc1Cl)N1CCN(C(=O)[C@H]2CNC[C@H](O)C2)CC1` (racemic) [Example 353, [2-chloro-4-[[3-[3-(trifluoromethyl)-1H-pyrazol-4-yl]imidazo[1,2-a]pyrazin-8-yl]amino]phenyl]-[4-[rac-(3R,5R)-5-hydroxypiperidine-3-carbonyl]piperazin-1-yl]methanone] showed an IC90 of 0.241 µM.
Compound `O=C(NC1CCC(NC(=O)[C@H]2C[C@H](O)CN2)C1)c1ccc(Nc2nccn3c(-c4c[nH]nc4C(F)(F)F)cnc23)cc1Cl` (mixture of isomers) [Example 373, rac-(2R,4S)-N-[3-[[2-chloro-4-[[3-[3-(trifluoromethyl)-1H-pyrazol-4-yl]imidazo[1,2-a]pyrazin-8-yl]amino]benzoyl]amino]cyclopentyl]-4-hydroxypyrrolidine-2-carboxamide] has an IC90 of 1.11 µM.
For `O=C(NC1CCCN(C(=O)[C@H]2C[C@H](O)CN2)C1)c1ccc(Nc2nccn3c(-c4c[nH]nc4C(F)(F)F)cnc23)cc1Cl` (mixture of isomers) [Example 387, 2-chloro-N-[1-[rac-(2R,4S)-4-hydroxypyrrolidine-2-carbonyl]piperidine-3-yl]-4-[[3-[3-(trifluoromethyl)-1H-pyrazol-4-yl]imidazo[1,2-a]pyrazin-8-yl]amino]benzamide], the IC90 was 4.84 µM.
For `N[C@@H]1CC[C@@H](NC(=O)c2ccc(Nc3nccn4c(-c5c[nH]nc5C(F)(F)F)cnc34)cc2Cl)C1` (racemic) [Example 407, 2-chloro-N-[rac-(1R,3R)-3-aminocyclopentyl]-4-[[3-[3-(trifluoromethyl)-1H-pyrazol-4-yl]imidazo[1,2-a]pyrazin-8-yl]amino]benzamide], the IC90 was 2.96 µM.
In the case of `Cc1cc(Nc2nccn3c(-c4c[nH]nc4C(F)(F)F)cnc23)ccc1C(=O)N1CCN(C(=O)[C@H]2CNC[C@H](O)C2)CC1` (racemic) [Example 439, [2-methyl-4-[[3-[3-(trifluoromethyl)-1H-pyrazol-4-yl]imidazo[1,2-a]pyrazin-8-yl]amino]phenyl]-[4-[rac-(3R,5R)-5-hydroxypiperidine-3-carbonyl]piperazin-1-yl]methanone hydrochloride], the IC90 is reported as 0.834 µM.
With `Cc1cc(Nc2nccn3c(-c4c[nH]nc4C(F)(F)F)cnc23)ccc1C(=O)N1CCN(C(=O)[C@@H]2CNCC[C@H]2O)CC1` (racemic) [Example 467, [2-methyl-4-[[3-[3-(trifluoromethyl)-1H-pyrazol-4-yl]imidazo[1,2-a]pyrazin-8-yl]amino]phenyl]-[4-[rac-(3R,4R)-4-hydroxypiperidine-3-carbonyl]piperazin-1-yl]methanone hydrochloride] the IC90 was 1.42 µM.
Compound `Cc1cc(Nc2nccn3c(-c4c[nH]nc4C(F)(F)F)cnc23)ccc1C(=O)N1CCN(C(=O)[C@@H]2CNCC[C@@H]2O)CC1` (racemic) [Example 468, [2-methyl-4-[[3-[3-(trifluoromethyl)-1H-pyrazol-4-yl]imidazo[1,2-a]pyrazin-8-yl]amino]phenyl]-[4-[rac-(3R,4S)-4-hydroxypiperidine-3-carbonyl]piperazin-1-yl]methanone hydrochloride] has an IC90 of 1.43 µM.
Work on `C#CC(C)n1cc(-c2cnc3c(Nc4ccc(C(=O)N5CCN(C(=O)C(C)N)CC5)c(CC)c4)nccn23)c(C(F)F)n1` (stereo in doubt) [Example 784, (2R)-2-amino-1-(4-(4-((3-(1-(but-3-yn-2-yl)-3-(difluoromethyl)-1H-pyrazol-4-yl)imidazo [1,2-a]pyrazin-8-yl)amino)-2-ethylbenzoyl)piperazin-1-yl)propan-1-one (mixture of epimers)] yielded an IC90 of 1.24 µM.
`C#CC(C)n1cc(-c2cnc3c(Nc4ccc(C(=O)N5CCN(C(=O)[C@H]6C[C@H](O)CN6)CC5)c(CC)c4)nccn23)c(C(F)F)n1` (stereo in doubt) [Example 787, (4-(4-((3-(1-(but-3-yn-2-yl)-3-(difluoromethyl)-1H-pyrazol-4-yl)imidazo[1,2-a]pyrazin-8-yl)amino)-2-ethylbenzoyl)piperazin-1-yl)((2R,4S)-4-hydroxypyrrolidin-2-yl)methanone (mixture of epimers)] gave an IC90 of 1.57 µM.
With `CCc1cc(Nc2nccn3c(-c4cn(Cc5ccncn5)nc4C(F)(F)F)cnc23)ccc1C(=O)NCCOCCN` [Example 2, N-[2-(2-aminoethoxy)ethyl]-2-ethyl-4-[[3-[1-(pyrimidin-4-ylmethyl)-3-(trifluoromethyl)pyrazol-4-yl]imidazo[1,2-a]pyrazin-8-yl]amino]benzamide] the IC90 was 0.513 µM.
With `CCc1cc(Nc2nccn3c(-c4cn(CC#N)nc4C(F)(F)F)cnc23)ccc1C(=O)NCCNC(=O)[C@@H]1CCCN1` [Example 3, (2S)—N-[2-[[4-[[3-[1-(cyanomethyl)-3-(trifluoromethyl)pyrazol-4-yl]imidazo[1,2-a]pyrazin-8-yl]amino]-2-ethylbenzoyl]amino]ethyl]pyrrolidine-2-carboxamide] the IC90 was 0.16 µM.
For `C#CCNC(=O)c1c(C)cc(Nc2nccn3c(-c4cn(CC#N)nc4C(F)(F)F)cnc23)cc1F` [Example 4, 4-[[3-[1-(cyanomethyl)-3-(trifluoromethyl)pyrazol-4-yl]imidazo[1,2-a]pyrazin-8-yl]amino]-2-fluoro-6-methyl-N-prop-2-ynylbenzamide], the IC90 was 0.132 µM.
Work on `C#CCn1cc(-c2cnc3c(Nc4ccc(C(=O)N5CCN(C(=O)C6CCNCC6)CC5)c(CC)c4)nccn23)c(C(F)(F)F)n1` [Example 5, [2-ethyl-4-[[3-[1-prop-2-ynyl-3-(trifluoromethyl)pyrazol-4-yl]imidazo[1,2-a]pyrazin-8-yl]amino]phenyl]-[4-(piperidine-4-carbonyl)piperazin-1-yl]methanone] yielded an IC90 of 0.262 µM.
Work on `NCC(=O)N1CCN(C(=O)c2ccc(Nc3nccn4c(-c5cn(CC(F)F)nc5C(F)(F)F)cnc34)cc2Cl)CC1` [Example 6, 2-amino-1-[4-[2-chloro-4-[[3-[1-(2,2-difluoroethyl)-3-(trifluoromethyl)pyrazol-4-yl]imidazo[1,2-a]pyrazin-8-yl]amino]benzoyl]piperazin-1-yl]ethanone] yielded an IC90 of 0.159 µM.
`NCCNC(=O)CNC(=O)c1ccc(Nc2nccn3c(-c4cn(CCF)nc4C(F)(F)F)cnc23)cc1Cl` [Example 8, N-[2-(2-aminoethylamino)-2-oxoethyl]-2-chloro-4-[[3-[1-(2-fluoroethyl)-3-(trifluoromethyl)pyrazol-4-yl]imidazo[1,2-a]pyrazin-8-yl]amino]benzamide formate] showed an IC90 of 0.484 µM.
In the case of `O=C(c1ccc(N(c2nccn3c(-c4c[nH]nc4C(F)(F)F)cnc23)C(F)F)cc1Cl)N1CCNCC1` [Example 9, [2-chloro-4-[difluoromethyl-[3-[3-(trifluoromethyl)-1H-pyrazol-4-yl]imidazo[1,2-a]pyrazin-8-yl]amino]phenyl]-piperazin-1-ylmethanone], the IC90 is reported as 1.05 µM.
In the case of `CNC(=O)c1ccc(Nc2nccn3c(-c4cn(C(F)F)nc4C(F)(F)F)cnc23)cc1Cl` [Example 10, 2-chloro-4-[[3-[1-(difluoromethyl)-3-(trifluoromethyl)pyrazol-4-yl]imidazo[1,2-a]pyrazin-8-yl]amino]-N-methylbenzamide], the IC90 is reported as 0.458 µM.
In the case of `N#CCn1cc(-c2cnc3c(Nc4ccc(C(=O)N5CCC(NC(=O)N[C@H]6CCNC6)CC5)c(Cl)c4)nccn23)c(C(F)(F)F)n1` [Example 11, 1-[1-[2-chloro-4-[[3-[1-(cyanomethyl)-3-(trifluoromethyl)pyrazol-4-yl]imidazo[1,2-a]pyrazin-8-yl]amino]benzoyl]piperidin-4-yl]-3-[(3S)-pyrrolidin-3-yl]urea], the IC90 is reported as 0.204 µM.

Same assay, conditions: strain ATCC 17961, OD600 growth over 16 h, read-out: A. baumannii ATCC 17961 IC90
“4-[2-chloro-4- [[3-[1-(2- cyanoethyl)-3- pyrazol-4- yl]imidazo[1,2- a]pyrazin-8- yl]amino]benzoyl]- N-[(3R)- pyrrolidin-3- yl]piperazine-1- carboxamide formate [Example 261]” was tested, and the IC90 was 0.521 µM.
“4-[[3-[1-(2-cyanomethyl)-3-(trifluoromethyl)pyrazol-4-yl]imidazo[1,2-a]pyrazin-8-yl]amino]-2-ethyl-N-methylbenzamide [Example 337]” showed an IC90 of 0.359 µM.
`C=CCn1cc(-c2cnc3c(Nc4ccc(C(=O)NCCOCC(C)N)c(CC)c4)nccn23)c(C(F)(F)F)n1` (stereo in doubt) [Example 146, N-[2-[(2S)-2-aminopropoxy]ethyl]-2-ethyl-4-[[3-[1-prop-2-enyl-3-(trifluoromethyl)pyrazol-4-yl]imidazo[1,2-a]pyrazin-8-yl]amino]benzamide] gave an IC90 of 0.028 µM.

From patent US20230203043A1, “NOVEL IMIDAZOPYRAZINE DERIVATIVES” (Hoffmann-La Roche Inc., priority 2020, published 2023)
